The values that follow come from patent US20220257764A1, “USE OF DIKETONE COMPOUND IN PHOTODYNAMIC THERAPY OR DIAGNOSIS” (BEIJING WHOLESOMETECH CO., LTD., priority 2019, published 2022).

What all share (format): cell-based
For one data set, the system named is B16 melanoma cell. The experiment in a line: MTT toxicity to tumor cells, under light and in the dark. To be noted: Mus musculus, under light, 450-480 nm laser, 110 mW/cm^2, 900 s. Here is the method: (§1) In this experimental example, the toxicity of the compound to tumor cells was tested by an MTT method including the following specific steps.
(§2) (1) Logarithmic cells were collected, the concentration of a cell suspension was adjusted, the cell suspension was added to a cell culture plate in a dose of 100 μL per well, and the cells were then added to a cell culture plate so that the density of the cells to be tested was adjusted to 1000-10000 wells (edge wells were filled with sterile PBS).
(§3) (2) The cells were incubated at 37° C. in the presence of 5% CO2 until the cells in a single layer covered the bottom of each well (96-well flat-bottom plate), and a drug in concentration gradients was added. Generally, the drug in 5 to 7 gradients was added in a dose of 100 μL per well, and 3 to 5 multi-wells were set.
(§4) (3) The cells were randomly divided into treated groups under light and treated groups in the dark, incubated at 37° C. in the presence of 5% CO2 for 16 h to 48 h, and observed with an inverted microscope.
(§5) (4) The cells were irradiated for 900 s with a laser having a wavelength of 450 nm to 480 nm (at an intensity of 110 mW/cm^2), and the final light dose was about 100 J/cm^2. After light irradiation, the cells were washed with PBS.
(§6) (5) An MTT solution (5 mg/ml, 0.5% MTT) was added in a dose of 20 μL per well to further incubate the cells for 4 h. If the drug could react with the MTT, centrifuging was carried out first, and then the culture solution was discarded and the cells were carefully washed twice or three times with PBS, and then the culture solution containing MTT was added.
(§7) (6) The culture was terminated and the culture solution in the wells was carefully removed.
(§8) (7) Dimethyl sulfoxide was added in a dose of 150 μL per well, and the plate was then shaken on a shaker at a low speed for 10 min to fully dissolve crystals. The absorbance at OD 490 nm of each well was measured with enzyme-linked immunoassay.
(§9) (8) Zero adjustment wells (medium, MTT, dimethyl sulfoxide) and control wells (cells, dissolving media of the same concentration, culture solution, MTT, dimethyl sulfoxide) were set at the same time.

Another data set has as its system Hela cells. The data set is described as above. To be noted: Homo sapiens. How it is done:
as §1, §2, §3, §4, §5, §6, §7, §8, §9

Another data set deals with SW480 colon cancer cells. Described as above. To be noted: Homo sapiens. How it is done: as §1, §2, §3, §4, §5, §6, §7, §8, §9
The next data set has as its system Escherichia coli. Put plainly: Inhibitory effect on bacteria (colony counting), under light and in the dark. Here is the method: A single Escherichia coli colony was transferred from a solid Luria Bertani (LB) agar plate to 5 ml liquid LB medium and incubated at 37° C. for 12 h. Bacteria were collected by centrifugation (7000 rpm, 1 min) and washed with PBS buffer three times. The supernatant was discarded, and the remaining Escherichia coli cells were resuspended in the PBS buffer. The bacterial suspension was adjusted to make its optical density (OD600) to 1.0. The suspension was then diluted (5 times) with PBS buffer. The diluted Escherichia coli cell suspension was incubated in the dark at 37° C. for 15 min in the presence of a photosensitizer (diketone compound) solution with a concentration of 60 mM, and then irradiated for 200 s under a 15 mW/cm^2 laser light (with a wavelength of 450 nm to 480 nm and in the final light dose of about 3 J cm^2), and after the irradiation the bacterial suspension was serially diluted (10^4 times) with PBS buffer. 100 μL of the diluted bacterial Escherichia coli cell was dispersed on a solid LB agar plate and incubated at 37° C. for 12 h to 16 h, and colonies formed were counted. In the meanwhile, a treated group in the dark and an untreated group in the dark were set; the inhibition rate was determined by dividing the number of colony forming units (cfu) killed in the treated group under light or the treated group in the dark by the number of colony forming units (cfu) killed in the untreated group in the dark.

For data set [1], the system named is human immortalized keratinocyte (Hacat cells). Put plainly: MTT cytotoxicity to normal cells, Experimental Example 5. To be noted: given under red light, 630-650 nm, 110 mW/cm^2, 900 s, 3 h incubation. How it is done: (1) Logarithmic phase cells were collected, the concentration of a cell suspension was adjusted, the cell suspension was added to a cell culture plate in a dose of 100 μL per well, and the cells were then added to a cell culture plate so that the density of the cells to be tested was adjusted to 1000-10000 wells (edge wells were filled with sterile PBS). […] Generally, the drug in 5 to 7 gradients was added in a dose of 100 μL per well, and 3 to 5 wells were set for each concentration of a drug. […] Cells in the experimental photosensitizer-light irradiation group were incubated for 15 min and then irradiated with light. […] After light irradiation, the cells were washed with PBS. […] After light irradiation, the cells were washed with PBS. […] If the drug could react with the MTT, centrifuging was carried out first, and then the culture solution was discarded and the cells were carefully washed twice or three times with PBS, and then the culture solution containing MTT was added. (6) The culture was terminated and the culture solution in the wells was carefully removed. (7) Dimethyl sulfoxide was added in a dose of 150 μL per well, and the plate was then shaken on a shaker at a low speed for 10 min to fully dissolve crystals. The absorbance at OD 490 nm of each well was measured with enzyme-linked immunoassay. […]

Setting [2] is: under light, 450-480 nm laser, 110 mW/cm^2, 900 s.
The mark [3] stands for this setting: SW480, under light, 450-480 nm laser, 110 mW/cm^2, 900 s.
[4] abbreviates: 60 mM, 450-480 nm laser, 15 mW/cm^2, 200 s, read-out: Inhibition rate under light.
Where [5] appears, read: 60 mM, in the dark, read-out: Inhibition rate in the dark.
Where [6] appears, read: read-out: Inhibition rate in the dark.
[7] abbreviates: read-out: Inhibition rate under light.

In general, IC50 refers to the concentration that gives 50% inhibition. A high value points to a need for much substance. By inhibition is commonly meant the drop in the measured response relative to a control, in per cent.

Where two headings read alike, the source gives them in different places.

For the compound `O=C(O)C(=O)c1ccccc1` [BJMU-207], the results for the IC50 in the data set with B16 melanoma cell, in the data set on Hela cells (setting [2]) and with SW480 colon cancer cells (setting [3]) were 96.6 ± 26.3 µM, 93.3 ± 20.3 µM and 99.2 ± 25.7 µM, respectively. Further, the figures for the inhibition at 60000 µM with Escherichia coli (setting [4]) and with Escherichia coli (setting [5]) were 64% and 7.3%, respectively.
For `CCCC(=O)C(C)=O` [BJMU-202], in that order: 2.9 ± 0.1 µM, 2.6 ± 0.6 µM, 2.5 ± 0.5 µM, 90 ± 3% and 8.6%.
With `O=C(C(=O)c1ccco1)c1ccco1` [BJMU-214], the IC50 with B16 melanoma cell amounted to 9000 ± 510 µM; with Hela cells (setting [2]), 8800 ± 480 µM; in the data set on SW480 colon cancer cells (setting [3]) it was 8900 ± 500 µM. Besides, the inhibition at 60000 µM in the data set on Escherichia coli (setting [4]) was 23%; in the data set with Escherichia coli (setting [5]) it was 5.6%.
`O=C(C(=O)c1ccccc1)c1ccccc1` [BJMU-209]: the IC50 in the data set on Hela cells (in the dark) was determined as 8200 ± 530 µM; with SW480 colon cancer cells (setting [3]), 7800 ± 480 µM. Further, the inhibition at 60000 µM worked out at 9.5% with Escherichia coli (setting [6]) and 26% with Escherichia coli (setting [7]).
For the compound `CCCCC(=O)C(C)=O` [BJMU-205], the IC50 in the data set with B16 melanoma cell amounted to 6.6 ± 1.8 µM; with Hela cells (setting [2]) it was 5.7 ± 1.7 µM; in the data set with SW480 colon cancer cells (setting [3]) it was 6.4 ± 1.9 µM. Further, the inhibition at 60000 µM in the data set with Escherichia coli (setting [4]) stood at 80%; in the data set on Escherichia coli (setting [5]), 2%.
Take `CCC(=O)C(=O)CC` [BJMU-201]: the IC50 was determined as 59.9 ± 9.9 µM in the data set with Hela cells (in the dark) and 63.9 ± 10.5 µM in the data set with SW480 colon cancer cells (setting [3]). Also, the inhibition at 60000 µM is 4.9% in the data set with Escherichia coli (setting [6]) and 58% in the data set on Escherichia coli (setting [7]).
For the compound `CC(=O)C(=O)O` [BJMU-208], the values for the IC50 in the data set on B16 melanoma cell, in the data set on Hela cells (setting [2]) and in the data set with SW480 colon cancer cells (setting [3]) were 174 ± 10.9 µM, 162 ± 10.1 µM and 173 ± 10.8 µM, respectively. The values for the inhibition at 60000 µM with Escherichia coli (setting [4]) and with Escherichia coli (setting [5]) were 45% and 8%, respectively.
`COc1ccc(C(=O)C(=O)c2ccc(OC)cc2)cc1` [BJMU-213]: the IC50 was 6400 ± 400 µM with Hela cells (in the dark) and 6600 ± 370 µM with SW480 colon cancer cells (setting [3]).
In the case of `NCC(=O)CCC(=O)O` [ALA, 5-α aminolevulinic acid, reference compound], in data set [1], the “cytotoxicity to Hacat cells” value is reported as “relatively high cytotoxicity”.
As to `CC(=O)C(=O)CC(C)C` [BJMU-206], the IC50 came to 144 ± 32.5 µM in the data set with B16 melanoma cell, 141 ± 37.4 µM with Hela cells (setting [2]) and 144 ± 31.9 µM with SW480 colon cancer cells (setting [3]). Moreover, the inhibition at 60000 µM came out at 46% in the data set on Escherichia coli (setting [4]) and 11.5% in the data set with Escherichia coli (setting [5]).
As for `CC(=O)C(=O)CBr` [BJMU-203], the figures for the IC50 in the data set on B16 melanoma cell, with Hela cells (setting [2]) and in the data set on SW480 colon cancer cells (setting [3]) were 2.7 ± 0.9 µM, 2.8 ± 1.1 µM and 3.1 ± 0.5 µM, respectively. Also, the inhibition at 60000 µM in the data set on Escherichia coli (setting [4]) came out at 93%; in the data set with Escherichia coli (setting [5]), 4.5%.
For `O=C(C(=O)c1ccc(Br)cc1)c1ccc(Br)cc1` [BJMU-211], the IC50 in the data set with SW480 colon cancer cells (SW480, in the dark) came out at 95000 ± 21300 µM; in the data set on SW480 colon cancer cells (setting [3]), 3200 ± 230 µM.
`O=C(C(=O)c1ccncc1)c1ccncc1` [BJMU-210]: the IC50 in the data set on B16 melanoma cell came out at 9800 ± 700 µM; in the data set with Hela cells (setting [2]), 9900 ± 700 µM; in the data set on SW480 colon cancer cells (setting [3]), 9600 ± 600 µM. Besides, the inhibition at 60000 µM in the data set on Escherichia coli (setting [4]) was 24%; with Escherichia coli (setting [5]), 6.4%.
On to `O=C(C(=O)c1ccc(F)cc1)c1ccc(F)cc1` [BJMU-212], for which the IC50 came to 99000 ± 15800 µM in the data set with SW480 colon cancer cells (SW480, in the dark) and 2800 ± 210 µM in the data set on SW480 colon cancer cells (setting [3]).
